Source: patent US7981912B2, “Indole acetic acids exhibiting CRTH2 receptor antagonism and uses thereof” (Wyeth LLC, priority 2004, dated 2011)

The compounds below were run against T1, human CRTH2 (Homo sapiens, UniProt Q9Y5Y4) (assay: CRTH-2 binding assay (scintillation proximity assay, inhibition of 3H-PGD2 binding)). Settings: inhibition of 3H-PGD2 (3.6 nM) binding to HEK 293EBNA-hCRTH2 membranes; Ki calculated from IC50.
T1 sequence (Q9Y5Y4 1-395): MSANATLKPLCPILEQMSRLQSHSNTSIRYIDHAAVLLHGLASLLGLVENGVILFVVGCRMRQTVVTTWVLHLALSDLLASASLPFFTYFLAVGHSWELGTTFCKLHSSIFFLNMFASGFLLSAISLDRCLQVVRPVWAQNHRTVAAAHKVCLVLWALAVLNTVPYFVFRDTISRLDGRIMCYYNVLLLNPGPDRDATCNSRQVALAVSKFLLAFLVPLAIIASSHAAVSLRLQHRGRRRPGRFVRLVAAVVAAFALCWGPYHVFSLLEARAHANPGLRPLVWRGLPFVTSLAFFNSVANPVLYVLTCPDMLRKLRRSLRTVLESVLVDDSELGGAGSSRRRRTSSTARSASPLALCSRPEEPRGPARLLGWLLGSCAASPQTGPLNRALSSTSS
Set-up: expressed in transfected cells; host or cells: HEK 293EBNA-hCRTH2 (membrane preparation)
Protocol: A CRTH2 binding assay was developed to measure the ability of compounds to inhibit the binding of PGD2 to human CRTH2 using a scintillation proximity assay.
Membranes containing hCRTH2 receptors were prepared from HEK 293EBNA-hCRTH2 cells (a HEK 293EBNA cell line stably expressing human CRTH2). The cells were grown to confluency, harvested and washed with PBS. The cells were resuspended in 10 mM Hepes pH 7.4, 1 mM EDTA and protease inhibitors and incubated for 30 min on ice. The cells were homogenized and centrifuged for 10 min at 1000×g. The supernate was centrifuged for 30 min at 100,000×g and the membrane pellet was then resusupended in 10 mM Hepes pH 7.4 and 1 mM EDTA. The protein concentration of the membrane preparation was determined by Bradford assay (Bio-Rad).
The ability of compounds to inhibit the interaction of PGD2 to human CRTH2 was determined at seven compound concentrations. Compounds were serially diluted in DMSO then diluted into CRTH2 buffer without glycerol (10 mM Hepes pH 7.4, 1 mM EDTA, 10 mM MnCl2) to six times the final desired concentration. 20 μL of the diluted compounds were transferred into non-surface binding 96 well plates (Corning). Each concentration was done in triplicate. In addition to test compounds, each plate contained 12 control wells. Six of these wells contained 20 μL of CRTH2 buffer without glycerol. These wells were used to measure total binding. Six wells contained 20 μL of CRTH2 buffer without glycerol plus 1.5 mM indomethacin. These wells were used to measure non-specific binding. Next, HEK 293EBNA-hCRTH2 membranes were resuspended in CRTH2 buffer with glycerol (10 mM Hepes pH 7.4, 1 mM EDTA, 10 mM MnCl2, 25% glycerol) so that the final concentration was approximately 20 μg protein/100 μL. Polylysine coated yttrium silicate SPA beads (Amershamn) were added to the membrane mix to a concentration of 0.4 mg/100 μL and finally ^3H-PGD2 was added to the membrane/SPA bead mix to 3.6 nM. 100 μL of the membrane/SPA bead/^3H-PGD2 mix was added to each well of the non-surface binding plates containing the diluted compound plus controls. The plates were incubated for 2 hours at room temperature with shaking and then the plates were counted on a Microbeta scintillation counter (Perkin Elmer) for 1 min per well.
IC50 values were determined from the experimental results by nonlinear regression using Prism 4.0 software. The IC50 values were then used in conjunction with the […] for hCRTH2 and the ^3H-PGD2 concentration used in the experiment to calculate the Ki for each compound.

Row | Ki [nM] | Structure (SMILES)
1 | < 100 | Cc1onc(-c2ccccc2)c1CN1C(c2c(C)n(CC(=O)O)c3ccccc23)c2ccccc2S1(=O)=O (centres unmarked) [Example 36, {2-Methyl-3-[2-(5-methyl-3-phenyl-isoxazol-4-ylmethyl)-1,1-dioxo-2,3-dihydro-1H-1λ^6-benzo[d]isothiazol-3-yl]-indol-1-yl}-acetic acid]
2 | < 100 | Cc1c(C2c3ccccc3S(=O)(=O)N2CCOc2ccc(Cl)cc2)c2ccccc2n1CC(=O)O (centres unmarked) [Example 39, (3-{2-[2-(4-Chloro-phenoxy)-ethyl]-1,1-dioxo-2,3-dihydro-1H-1λ^6-benzo[d]isothiazol-3-yl}-2-methyl-indol-1-yl)-acetic acid]
3 | < 1000 | Cc1nc(CN2C(c3c(C)n(CC(=O)O)c4ccccc34)c3ccccc3S2(=O)=O)cs1 (centres unmarked) [Example 42, {2-Methyl-3-[2-(2-methyl-thiazol-4-ylmethyl)-1,1-dioxo-2,3-dihydro-1H-1λ^6benzo[d]isothiazol-3-yl]-indol-1-yl}-acetic acid]
4 | < 100 | Cc1c(C2=NN(CCc3ccccc3)C(=O)[C@@H]3CC=CC[C@H]23)c2ccccc2n1CC(=O)O (stereo in doubt) [Example 72, [2-Methyl-3-(4-oxo-3-phenethyl-3,4,4a,5,8,8a-hexahydro-phthalazin-1-yl)-indol-1-yl]-acetic acid]
5 | < 1000 | Cc1ccc2c(c1)c(C1c3ccccc3S(=O)(=O)N1Cc1nc3ccccc3s1)cn2CC(=O)O (centres unmarked) [Example 48, [3-(2-Benzothiazol-2-ylmethyl-1,1-dioxo-2,3-dihydro-1H-1λ^6-benzo[d]isothiazol-3-yl)-5-methyl-indol-1-yl]-acetic acid]
6 | < 1000 | Cc1c(C2(C)c3ccccc3S(=O)(=O)N2CCOc2ccccc2)c2ccccc2n1CC(=O)O (centres unmarked) [Example 67, {2-Methyl-3-[3-methyl-1,1-dioxo-2-(2-phenoxy-ethyl)-2,3-dihydro-1H-1-benzo[d]isothiazol-3-yl]-indol-1-yl}-acetic acid]
7 | < 1000 | Cc1c(C2NS(=O)(=O)c3ccccc32)c2cc(F)ccc2n1CC(=O)O (centres unmarked) [Example 10, [3-(1,1-Dioxo-2,3-dihydro-1H-1λ^6-benzo[d]isothiazol-3-yl)-5-fluoro-2-methyl-indol-1-yl]-acetic acid]
8 | < 100 | Cc1noc(C)c1CN1N=C(c2c(C)n(CC(=O)O)c3ccc(F)cc23)c2ccccc2S1(=O)=O [Example 90, {3-[2-(3,5-Dimethyl-isoxazol-4-ylmethyl)-1,1-dioxo-1,2-dihydro-1λ^6-benzo[e][1,2,3]thiadiazin-4-yl]-5-fluoro-2-methyl-indol-1-yl}-acetic acid]
9 | < 100 | Cc1c(C2=NN(Cc3ccccc3)C(=O)C(C)(C)C2)c2cc(Cl)ccc2n1CC(=O)O [Example 73, [3-(1-Benzyl-5,5-dimethyl-6-oxo-1,4,5,6-tetrahydro-pyridazin-3-yl)-5-chloro-2-methyl-indol-1-yl]-acetic acid]
10 | < 10000 | Cc1c(C2NS(=O)(=O)c3ccccc32)c2ccccc2n1CC(=O)O (centres unmarked) [Example 3, [3-(1,1-Dioxo-2,3-dihydro-1H-1λ^6-benzo[d]isothiazol-3-yl)-2-methyl-indol-1-yl]-acetic acid]
11 | < 1000 | Cc1c(C2=NN(Cc3ccccc3)S(=O)(=O)c3ccccc32)c2cc(F)ccc2n1CC(=O)O [Example 75, [3-(2-Benzyl-1,1-dioxo-1,2-dihydro-1λ^6-benzo[e][1,2,3]thiadiazin-4-yl)-5-fluoro-2-methyl-indol-1-yl]-acetic acid]
12 | < 10000 | Cc1c(C2c3ccccc3S(=O)(=O)N2CC(=O)Nc2ccc(F)cc2)c2ccccc2n1CC(=O)O (centres unmarked) [Example 37, (3-{2-[(4-Fluoro-phenylcarbamoyl)-methyl]-1,1-dioxo-2,3-dihydro-1H-1λ^6-benzo[d]isothiazol-3-yl}-2-methyl-indol-1-yl)-acetic acid]
13 | < 10000 | O=C(O)Cn1cc(C2NS(=O)(=O)c3ccccc32)c2ccccc21 (centres unmarked) [Example 1, [3-(1,1-Dioxo-2,3-dihydro-1λ^6-benzo[d]isothiazol-3-yl)-indol-1-yl]-acetic acid]
14 | < 100 | CCN1N=C(c2c(C)n(CC(=O)O)c3ccc(F)cc23)c2ccccc2S1(=O)=O [Example 91, [3-(2-Ethyl-1,1-dioxo-1,2-dihydro-1λ^6-benzo[e][1,2,3]thiadiazin-4-yl)-5-fluoro-2-methyl-indol-1-yl]-acetic acid]
15 | < 10000 | Cc1ccc2c(c1)c(C1NS(=O)(=O)c3ccccc31)cn2CC(=O)O (centres unmarked) [Example 2, [3-(1,1-Dioxo-2,3-dihydro-1H-1λ^6-benzo[d]isothiazol-3-yl)-5-methyl-indol-1-yl]-acetic acid]
16 | < 10000 | Cc1ccc2c(c1)c(C1c3ccccc3S(=O)(=O)N1Cc1cccc(C(F)(F)F)c1)cn2CC(=O)O (centres unmarked) [Example 51, {3-[1,1-Dioxo-2-(3-trifluoromethyl-benzyl)-2,3-dihydro-1H-1λ^6-benzo[d]isothiazol-3-yl]-5-methyl-indol-1-yl}-acetic acid]
17 | < 1000 | Cc1c(C2c3ccccc3S(=O)(=O)N2CCC(C)C)c2ccccc2n1CC(=O)O (centres unmarked) [Example 44, {2-Methyl-3-[2-(3-methyl-butyl)-1,1-dioxo-2,3-dihydro-1H-1λ^6-benzo[d]isothiazol-3-yl]-indol-1-yl}-acetic acid]
18 | < 1000 | O=C(O)Cn1cc(C2NS(=O)(=O)c3ccccc32)c2ccc(Cl)cc21 (centres unmarked) [Example 12, [6-Chloro-3-(1,1-dioxo-2,3-dihydro-1H-1λ^6-benzo[d]isothiazol-3-yl)-indol-1-yl]-acetic acid]
19 | < 1000 | O=C(O)Cn1cc(C2c3ccccc3S(=O)(=O)N2Cc2csc(-c3ccc(Cl)cc3)n2)c2ccccc21 (centres unmarked) [Example 34, (3-{2-[2-(4-Chloro-phenyl)-thiazol-4-ylmethyl]-1,1-dioxo-2,3-dihydro-1H-1λ^6-benzo[d]isothiazol-3-yl}-indol-1-yl)-acetic acid]
20 | < 10000 | O=C(O)Cn1cc(C2NS(=O)(=O)c3ccccc32)c2cc(Cl)ccc21 (centres unmarked) [Example 5, [5-Chloro-3-(1,1-dioxo-2,3-dihydro-1H-1λ^6-benzo[d]isothiazol-3-yl)-indol-1-yl]-acetic acid]
21 | < 1000 | Cc1c(C2=NN(CCOc3ccccc3)S(=O)(=O)c3ccccc32)c2cc(F)ccc2n1CC(=O)O [Example 88, {3-[2-(2-Phenoxy-ethyl)-1,1-dioxo-1,2-dihydro-1λ^6-benzo[e][1,2,3]thiadiazin-4-yl]-5-fluoro-2-methyl-indol-1-yl}-acetic acid]
22 | < 1000 | Cc1noc(C)c1CN1C(=O)c2ccccc2C1c1c(C)n(CC(=O)O)c2ccccc12 (centres unmarked) [Example 68, {3-[2-(3,5-Dimethyl-isoxazol-4-ylmethyl)-3-oxo-2,3-dihydro-1H-isoindol-1-yl]-2-methyl-indol-1-yl}-acetic acid]
23 | < 10000 | COc1ccc2c(c1)c(C1NS(=O)(=O)c3ccccc31)cn2CC(=O)O (centres unmarked) [Example 4, [3-(1,1-Dioxo-2,3-dihydro-1H-1λ^6-benzo[d]isothiazol-3-yl)-5-methoxy-indol-1-yl]-acetic acid]
24 | < 1000 | C=CCN1C(c2c(C)n(CC(=O)O)c3ccc(Cl)cc23)c2ccccc2S1(=O)=O (centres unmarked) [Example 58, [3-(2-Allyl-1,1-dioxo-2,3-dihydro-1H-1λ^6-benzo[d]isothiazol-3-yl)-5-chloro-2-methyl-indol-1-yl]-acetic acid]
25 | < 1000 | Cc1ccc2c(c1)c(C1c3ccccc3S(=O)(=O)N1Cc1ccc(F)cc1)cn2CC(=O)O (centres unmarked) [Example 49, {3-[2-(4-Fluoro-benzyl)-1,1-dioxo-2,3-dihydro-1H—1λ^6-benzo[d]isothiazol-3-yl]-5-methyl-indol-1-yl}-acetic acid]
26 | < 1000 | Cc1c(C2=NN(Cc3ccc(Cl)cc3)S(=O)(=O)c3ccccc32)c2cc(F)ccc2n1CC(=O)O [Example 78, {3-[2-(4-Chloro-benzyl)-1,1-dioxo-1,2-dihydro-1λ^6-benzo[e][1,2,3]thiadiazin-4-yl]-5-fluoro-2-methyl-indol-1-yl}-acetic acid]
